The record followed here is patent US20190225650A1, “PEPTIDOMIMETIC MACROCYCLES AND USE THEREOF IN REGULATING HIF1ALPHA” (AILERON THERAPEUTICS, INC., priority 2013, published 2019).

The structures appear in SMILES notation. Bridge positions count the residues as written; N and C are the ends. Square brackets hold non-standard residues; d marks the D form. Peptide text beside a SMILES is read from it. R8 = C=CCCCCCC[C@@](C)(N)C(=O)O; S5 = C=CCCC[C@](C)(N)C(=O)O; Nle = CCCC[C@H](N)C(=O)O

Assay [1] relates to HRE-bla ME-180 cells. The assay can be described thus: Cell proliferation assay (viability, MTT, 1% FBS). It is filed as cell-based, human. In outline: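 Viable cell number was measured with the CellTiter 96 (MTT) kit after compounds were applied for a 16 h normoxic (21% O2) pretreatment, followed by further normoxic or hypoxic (1% O2) culture. Cells: 2×10^4 ME-180 per well, Opti-MEM + 1% FBS, 0.5% DMSO vehicle.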

The target in assay [2] is T1, flag-tagged HIF1α (AA 786-826) / His6-tagged p300 (AA 323-423) complex (Homo sapiens, UniProt Q09472).
T1 construct: His6-tagged p300 (AA 323-423); made in house; host or cells: E. coli (pETDuet vector)
The experiment in a line: HIF1α p300 displacement assay (TR FRET, +CHAPS). It is filed as binding. The settings on record: read-out: IC50 (nM) (HIF1α_p300 Displacement + CHAPS). In outline:
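In this TR-FRET displacement format, peptides compete HIF1α C-terminal transactivation domain off p300-CH. They were preincubated 1 h at room temperature with 300 nM complex in HEPES pH 7.4/NaCl buffer with 7.5 mM CHAPS and 1 mM DTT. Anti-His-D2 (4 nM) and anti-Flag-K (0.5 μM) followed for 2 h, and a one-site fit of the fluorescence ratio gave IC50.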

Assay [3] concerns HRE-bla ME-180 cells. The experiment in a line: Reporter gene assay (HRE-bla ME-180 HIF reporter, GeneBLAzer). The conditions noted are these: for EC50: 24 hour normoxia. It is filed as cell-based, human. In outline:
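A FRET β-lactamase readout of HIF transcription was used. After compound treatment in 0.3% DMSO/media under normoxic conditions, 20 μl of 6× LiveBLAzer-FRET B/G (CCF4-AM) substrate was added. Plates sat 3 hr at room temperature in the dark and were read at 409 Ex/460Em and 409Ex/530Em on a Synergy 2. Inhibition was compared against DMSO vehicle controls, with chetomin as positive control.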

As for `CCCC[C@H](NC(=O)[C@H](CC(C)C)NC(=O)[C@@H](NC(=O)[C@H](CCC(=O)O)NC(=O)[C@H](CCC(=O)O)NC(=O)[C@H](CC(=O)O)NC(=O)[C@@H](NC(=O)[C@H](CC(N)=O)NC(=O)[C@@H](NC(=O)[C@H](CCC(N)=O)NC(=O)[C@]1(C)CCCC=CCCCCCC[C@@](C)(NC(=O)CNC(=O)[C@H](CCC(N)=O)NC(=O)[C@H](CC(C)C)NC(=O)[C@H](CC(C)C)NC(C)=O)C(=O)N[C@@H](CCC(=O)O)C(=O)N[C@@H](CC(C)C)C(=O)N[C@@H](CC(C)C)C(=O)N[C@@H](CCCNC(=N)N)C(=O)N[C@@H](C)C(=O)N[C@@H](CC(C)C)C(=O)N1)C(C)C)[C@@H](C)CC)C(C)C)C(=O)N[C@@]1(C)CCCC=CCCC[C@@](C)(C(=O)N[C@@H](CCCC)C(=O)NCC(N)=O)NC(=O)[C@H]([C@@H](C)CC)NC(=O)[C@H](C(C)C)NC(=O)[C@H](CC(C)C)NC1=O` [SP-342] (Ac-LLQG[R8]ELLRAL[S5]QVNIDEEVL[Nle][S5]LVI[S5][Nle]G-NH2; staple 5-12, 23-27), in the assay on HRE-bla ME-180 cells [1], the “Viability 1% FBS AVG (MTT V3-24 hr Normoxia) (μM)” value (“Viability 1% FBS AVG” below) is recorded as “++++ (≥30: ++++)”. The 50% inhibitory concentration (IC50) in assay [2] was greater than 700 nM. For the same compound, in the assay on HRE-bla ME-180 cells [3], the “18 h Avg % max inhibition at top conc (HIF Rptr-24 hrs normoxia) (μM)” value (“18 h Avg % max inhibition at top conc” below) is reported as “+++ (≤25 but <50: +++)” and the EC50 is greater than 30 µM.
On the same counts, the results for `CCCC[C@H](NC(=O)[C@H](CCC(=O)O)NC(=O)[C@@H](NC(=O)[C@@H](NC(=O)[C@H](CC(C)C)NC(=O)[C@]1(C)CCCC=CCCC[C@](C)(NC(=O)[C@H](CCC(=O)O)NC(=O)[C@H](CC(=O)O)NC(=O)[C@@H](NC(=O)[C@H](Cc2ccccc2)NC(C)=O)[C@@H](C)CC)C(=O)N[C@@H](CC(N)=O)C(=O)N[C@@H](CC(C)C)C(=O)N[C@@H](CCCC)C(=O)N1)C(C)C)[C@@H](C)CC)C(=O)N[C@@H](C)C(=O)N[C@@H](CC(C)C)C(N)=O` [SP-141] (Ac-FIDE[S5]NL[Nle][S5]LVIE[Nle]AL-NH2; staple 5-9) are “++ (≤5 but <15: ++)”, 400 to 700 nM, “++++ (≥50: ++++)” and 15 to 30 µM.
Turning to `CCCC[C@H](NC(=O)[C@H](Cc1ccccc1)NC(=O)[C@@H](NC(=O)[C@H](CCC(=O)O)NC(=O)[C@H](CCC(=O)O)NC(=O)[C@H](CC(=O)O)NC(C)=O)C(C)C)C(=O)N[C@@]1(C)CCCC=CCCC[C@@](C)(C(=O)N[C@@H](CCCC)C(=O)N[C@@H](C)C(=O)N[C@@H](CC(C)C)C(=O)N[C@@H](CC(C)C)C(N)=O)NC(=O)[C@H]([C@@H](C)CC)NC(=O)[C@H](C(C)C)NC(=O)[C@H](CC(C)C)NC1=O` [SP-244] (Ac-DEEVF[Nle][S5]LVI[S5][Nle]ALL-NH2; staple 7-11), the “Viability 1% FBS AVG” value in the assay on HRE-bla ME-180 cells [1] was “++++ (≥30: ++++)”. For the same compound, in assay [2], the IC50 is greater than 700 nM. Moreover, in the assay on HRE-bla ME-180 cells [3], the “18 h Avg % max inhibition at top conc” value is “++++ (≥50: ++++)” and the EC50 was no more than 5 µM.
As for `CC[C@H](C)[C@H](NC(=O)[C@H](Cc1ccccc1)NC(C)=O)C(=O)N[C@@H](CC(N)=O)C(=O)N[C@@H](CCC(=O)O)C(=O)N[C@@H](CCCCN)C(=O)N[C@H](C(=O)N[C@@H](CC(C)C)C(=O)N[C@@H](CCSC)C(=O)N[C@@]1(C)CCCC=CCCC[C@@](C)(C(=O)N[C@@H](CCSC)C(=O)N[C@@H](C)C(=O)N[C@@H](CC(C)C)C(=O)N[C@@H](CO)C(=O)N[C@@H](CCCNC(=N)N)C(N)=O)NC(=O)[C@H]([C@@H](C)CC)NC(=O)[C@H](C(C)C)NC(=O)[C@H](CC(C)C)NC1=O)C(C)C` [SP-288] (Ac-FINEKVLM[S5]LVI[S5]MALSR-NH2; staple 9-13), in the assay with HRE-bla ME-180 cells [1], the “Viability 1% FBS AVG” value is “++++ (≥30: ++++)”. Further, the IC50 in assay [2] is greater than 700 nM. Moreover, in the assay with HRE-bla ME-180 cells [3], the “18 h Avg % max inhibition at top conc” value is given as “+ (<10: +)” and the concentration giving a half-maximal response (EC50) was greater than 30 µM.
On the same counts, the results for `CCCC[C@H](NC(=O)[C@H](CCC(=O)O)NC(=O)[C@@H](NC(=O)[C@@H](NC(=O)[C@H](CC(C)C)NC(=O)[C@]1(C)CCCC=CCCC[C@](C)(NC(=O)[C@H](CCC(=O)O)NC(=O)[C@H](CC(=O)O)NC(=O)[C@@H](NC(=O)[C@H](Cc2ccccc2)NC(C)=O)[C@@H](C)CC)C(=O)N[C@@H](C)C(=O)N[C@@H](CC(C)C)C(=O)N[C@@H](CCCC)C(=O)N1)C(C)C)[C@@H](C)CC)C(=O)N[C@@H](C)C(=O)N[C@@H](CC(C)C)C(N)=O` [SP-138] (Ac-FIDE[S5]AL[Nle][S5]LVIE[Nle]AL-NH2; staple 5-9) are “++++ (≥30: ++++)”, 200 to 400 nM, “+++ (≤25 but <50: +++)” and greater than 30 µM.
Turning to `CCCC[C@H](NC(=O)[C@H](Cc1ccccc1)NC(=O)[C@@H](NC(=O)[C@H](C)NC(=O)[C@H](CCC(N)=O)NC(=O)[C@H](CC(=O)O)NC(=O)[C@@H](NC(=O)[C@H](Cc1ccccc1)NC(C)=O)[C@@H](C)CC)C(C)C)C(=O)N[C@@]1(C)CCCC=CCCC[C@@](C)(C(=O)N[C@@H](CCCNC(=N)N)C(=O)N[C@@H](C)C(=O)N[C@@H](CC(C)C)C(=O)N[C@@H](CC(C)C)C(N)=O)NC(=O)[C@H]([C@@H](C)CC)NC(=O)[C@H](C(C)C)NC(=O)[C@H](CC(C)C)NC1=O` [SP-256] (Ac-FIDQAVF[Nle][S5]LVI[S5]RALL-NH2; staple 9-13), the “Viability 1% FBS AVG” value in the assay on HRE-bla ME-180 cells [1] is recorded as “++ (≤5 but <15: ++)”. For the same compound, the concentration for half-maximal inhibition (IC50) in assay [2] was greater than 700 nM. For the same compound, in the assay with HRE-bla ME-180 cells [3], the “18 h Avg % max inhibition at top conc” value is on record as “++++ (≥50: ++++)” and the EC50 is no more than 5 µM.
On the same counts, the results for `CCCC[C@H](NC(=O)[C@H](CCC(=O)O)NC(=O)[C@]1(C)CCCC=CCCCCCC[C@@](C)(NC(=O)[C@H](CCC(=O)O)NC(=O)[C@H](CC(=O)O)NC(=O)[C@@H](NC(=O)[C@H](CC(N)=O)NC(=O)[C@@H](NC(=O)[C@H](CCC(N)=O)NC(=O)[C@]2(C)CCCC=CCCC[C@](C)(NC(=O)[C@H](CC(C)C)NC(=O)[C@H](C)NC(=O)[C@H](CCC(=O)O)NC(=O)CNC(=O)[C@H](CCC(N)=O)NC(=O)[C@H](CC(C)C)NC(=O)[C@H](CC(C)C)NC(C)=O)C(=O)N[C@@H](CCCNC(=N)N)C(=O)N[C@@H](C)C(=O)N[C@@H](CC(C)C)C(=O)N2)C(C)C)[C@@H](C)CC)C(=O)N[C@@H](C(C)C)C(=O)N[C@@H](CC(C)C)C(=O)N[C@@H](CCCC)C(=O)N[C@@H](CO)C(=O)N[C@@H](CC(C)C)C(=O)N[C@@H](C(C)C)C(=O)N1)C(N)=O` [SP-361] (Ac-LLQGEAL[S5]RAL[S5]QVNIDE[R8]VL[Nle]SLV[S5]E[Nle]-NH2; staple 8-12, 19-26) are “++++ (≥30: ++++)”, greater than 700 nM, “++ (≤10 but <25: ++)” and greater than 30 µM.
In the case of `CCCC[C@@H]1NC(=O)[C@H](CC(C)C)NC(=O)[C@](C)(NC(=O)[C@H](CCC(=O)O)NC(=O)[C@H](CCC(=O)O)NC(=O)[C@H](CC(=O)O)NC(=O)[C@@H](NC(=O)[C@H](CC(N)=O)NC(=O)[C@@H](NC(=O)[C@]2(C)CCCC=CCCCCCC[C@@](C)(NC(=O)[C@H](CCC(=O)O)NC(=O)CNC(=O)[C@H](CCC(N)=O)NC(=O)[C@H](CC(C)C)NC(=O)[C@H](CC(C)C)NC(C)=O)C(=O)N[C@@H](CC(C)C)C(=O)N[C@@H](CC(C)C)C(=O)N[C@@H](CCCNC(=N)N)C(=O)N[C@@H](C)C(=O)N[C@@H](CC(C)C)C(=O)N[C@@H](CC(=O)O)C(=O)N2)C(C)C)[C@@H](C)CC)CCCCCCC=CCCC[C@@](C)(C(=O)N[C@@H](CCCC)C(=O)NCC(N)=O)NC(=O)[C@H]([C@@H](C)CC)NC(=O)[C@H](C(C)C)NC(=O)[C@H](CC(C)C)NC(=O)[C@H](CO)NC1=O` [SP-332] (Ac-LLQGE[R8]LLRALD[S5]VNIDEE[R8]L[Nle]SLVI[S5][Nle]G-NH2; staple 6-13, 20-27), the “Viability 1% FBS AVG” value in the assay on HRE-bla ME-180 cells [1] is recorded as “++++ (≥30: ++++)”. Further, in assay [2], the IC50 was no more than 200 nM. In the assay on HRE-bla ME-180 cells [3], the “18 h Avg % max inhibition at top conc” value was “+ (<10: +)” and the concentration for a half-maximal effect (EC50) is greater than 30 µM.
As for `CCCC[C@H](NC(=O)[C@H](CCC(=O)O)NC(=O)[C@]1(C)CCCC=CCCCCCC[C@@](C)(NC(=O)[C@H](CCC(=O)O)NC(=O)[C@H](CC(=O)O)NC(=O)[C@@H](NC(=O)[C@H](CC(N)=O)NC(=O)[C@@H](NC(=O)[C@]2(C)CCCC=CCCCCCC[C@@](C)(NC(=O)[C@H](CCC(=O)O)NC(=O)[C@H](C)NC(=O)[C@H](CCC(N)=O)NC(=O)[C@H](CC(C)C)NC(=O)[C@H](CC(C)C)NC(C)=O)C(=O)N[C@@H](CC(C)C)C(=O)N[C@@H](CC(C)C)C(=O)N[C@@H](CCCNC(=N)N)C(=O)N[C@@H](C)C(=O)N[C@@H](CC(C)C)C(=O)N[C@@H](CC(=O)O)C(=O)N2)C(C)C)[C@@H](C)CC)C(=O)N[C@@H](C(C)C)C(=O)N[C@@H](CC(C)C)C(=O)N[C@@H](CCCC)C(=O)N[C@@H](CO)C(=O)N[C@@H](CC(C)C)C(=O)N[C@@H](C(C)C)C(=O)N1)C(N)=O` [SP-357] (Ac-LLQAE[R8]LLRALD[S5]VNIDE[R8]VL[Nle]SLV[S5]E[Nle]-NH2; staple 6-13, 19-26), the “Viability 1% FBS AVG” value in the assay with HRE-bla ME-180 cells [1] is “++++ (≥30: ++++)”. The half-inhibitory concentration (IC50) in assay [2] was no more than 200 nM. In addition, in the assay with HRE-bla ME-180 cells [3], the “18 h Avg % max inhibition at top conc” value is given as “++ (≤10 but <25: ++)” and the EC50 was greater than 30 µM.

What is called IC50 is the concentration at which inhibition is half-maximal. The EC50 is the concentration giving half of the maximal effect.
